≈ marks a conversion by molar mass, not a printed value.

In assay [1] the test system is MCF-7 human breast cancer cells. Put plainly: Crystal violet cell growth assay. It counts as cell-based. Conditions: MCF7, MCF-7 cells, read-out: Cr. Violet (IC50). How it is done: Crystal Violet Cell Growth Assay
The crystal violet assay measure cell growth but not cytotoxicity. This assay employs crystal violet staining of fixed cells in 96-well plates with subsequent solubilization and measurement of OD490 on a spectrophotometer. The OD490 corresponds to cell growth per unit time measured. Cells are treated with the compounds of interest or vehicle controls and IC50 for each compound is computed.
To measure the cytotoxicity of specific compounds against cancer cells, 5×10^4 MCF-7 human breast cancer cells, obtained from the American Type Culture Collection are plated per well in 24 well plates in DMEM medium with 10% fetal bovine serum, penicillin, and streptomycin. Following overnight culture at 37° C. and 5% CO2, the compounds to be tested, dissolved in DMSO, are added to the wells in 1 μl volume at the following concentrations: 50, 40, 30, 20, and 10 μg/ml in triplicate. […]
After 72 hours of incubation, cells are stained with 0.5 ml of Crystal Violet stain (0.5% in 25% methanol) in each well. […] Following transfer of 100 μl from each well to a 96-well plate, plates are read at OD490 on a Molecular Devices SpectraMax Plus Spectrophotometer Average OD490 values are computed using SOFTmax Pro Software (Molecular Devices) and IC50 values are determined by linear regression analysis using Prism version 3.02 (Graph Pad Software, San Diego).

The next assay has as its target T1, CPT-1 (Homo sapiens, UniProt P50416).
T1 construct: This assay uses permeabilized cells to measure the transfer of [methyl-^14C]L-carnitine; endogenous in cells; host or cells: MCF-7 cells, digitonin-permeabilized
T1 sequence (P50416 1-773): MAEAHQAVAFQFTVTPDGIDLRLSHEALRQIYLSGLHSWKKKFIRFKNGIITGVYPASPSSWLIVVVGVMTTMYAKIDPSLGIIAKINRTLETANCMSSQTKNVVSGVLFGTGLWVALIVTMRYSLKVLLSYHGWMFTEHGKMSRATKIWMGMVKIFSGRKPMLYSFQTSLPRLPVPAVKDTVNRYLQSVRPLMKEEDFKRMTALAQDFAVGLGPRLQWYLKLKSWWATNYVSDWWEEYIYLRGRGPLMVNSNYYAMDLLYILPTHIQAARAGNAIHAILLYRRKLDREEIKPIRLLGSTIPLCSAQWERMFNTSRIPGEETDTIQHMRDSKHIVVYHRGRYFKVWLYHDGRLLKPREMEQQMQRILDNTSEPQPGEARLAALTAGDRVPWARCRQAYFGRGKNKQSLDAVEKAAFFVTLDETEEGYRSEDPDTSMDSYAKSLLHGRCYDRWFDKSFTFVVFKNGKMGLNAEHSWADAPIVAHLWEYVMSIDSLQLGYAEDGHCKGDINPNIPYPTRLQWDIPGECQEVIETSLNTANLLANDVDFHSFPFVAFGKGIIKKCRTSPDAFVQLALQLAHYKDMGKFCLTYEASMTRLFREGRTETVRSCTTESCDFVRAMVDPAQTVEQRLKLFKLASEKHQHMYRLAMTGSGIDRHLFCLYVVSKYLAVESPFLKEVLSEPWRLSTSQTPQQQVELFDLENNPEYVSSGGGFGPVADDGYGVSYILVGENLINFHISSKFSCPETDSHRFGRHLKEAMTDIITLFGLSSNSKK
Put plainly: Carnitine palmitoyltransferase-1 (CPT-1) assay in permeabilized MCF-7 cells. Conditions: at 20 ug/ml. It counts as cell-based. The procedure:
Carnitine Palmitoyltransferase-1 (CPT-1) Assay
CPT-1 catalyzes the ATP dependent transfer of long-chain fatty acids from acyl-CoA to acyl-carnitine that is inhibited by malonyl-CoA. As CPT-1 requires the mitochondrial membrane for activity, enzyme activity is measured in permeabilized cells or mitochondria. This assay uses permeabilized cells to measure the transfer of [methyl-^14C]L-carnitine to the organically soluble acyl-carnitine deriviative.
MCF-7 cells are plated in DMEM with 10% fetal bovine serum at 10^6 cells in 24-well plates in triplicate for controls, drugs, and malonyl-CoA. Two hours before commencing the assay, drugs are added at the indicated concentrations made from stock solutions at 10 mg/ml in DMSO, vehicle controls consist of DMSO without drug. Since malonyl-CoA cannot enter intact cells, it is only added in the assay buffer to cells that have not been preincubated with drugs. Following overnight incubation at 37° C., the medium is removed and replaced with 700 μl of assay buffer consisting of: 50 mM imidazole, 70 mM KCl, 80 mM sucrose, 1 mM EGTA, 2 mM MgCl2, 1 mM DTT, 1 mM KCN, 1 mM ATP, 0.1% fatty acid free bovine serum albumin, 70 μM palmitoyl-CoA, 0.25 μCi [methyl-^14C]L-carnitine, 40 μg digitonin with drug, DMSO vehicle control, or 20 μM malonyl-CoA. […] The butanol phase is counted by liquid scintillation and represents the acylcarnitine derivative.

Turning to `C=CCC1(CC=C)C(=O)SC(C)(CCCCCCCC)C1=O` (racemic) [Compound 4, 3,3-Diallyl-5-methyl-5-octyl-thiophene-2,4-dione], in assay [1], the IC50 is 15 ± 7.7 µg/mL (≈ 46.5 µM). At CPT-1, the “CPT I Stim” value is given as 125% of control.

Broadly, the IC50 is the concentration that inhibits the measured activity by half.

Source of the values: US20090005435A1, “Novel Compounds, Pharmaceutical Compositions Containing Same, and Methods of Use for Same” (priority 2004, published 2009).
